Measured values taken from patent US9982138B2, “Hair color compositions comprising stable violet-blue to blue imidazolium dyes” (Noxell Corporation, priority 2016, dated 2018).
Structures can show the parent of a compound that is named as a salt.

How the values were obtained:
Format in all cases: physicochemical
[1] = In-use disappearance of the dye in ammonia buffer with hydrogen peroxide (UV/visible absorbance); details: % loss recorded at 30 minutes in the presence of a 3% peroxide solution at pH 10.58
Protocol: Disappearance of the dye is measured on a Cary 100 UV/visible spectrophotometer. A solution of the dye in 50% aqueous ethanol at a concentration sufficient to give an absorbance of 2.0 at the dye's λmax and buffered at pH 10.6 with ammonia is mixed with an equal volume of 6% hydrogen peroxide in a 1 cm quartz cuvette. […]

[2] = Storage stability: disappearance of the dye on storage at pH 10, 25° C. (UV/visible absorbance); details: % loss on 1-month storage at pH 10, 25° C.
Protocol: Disappearance of the dye is measured on a Cary 100 UV/visible spectrophotometer using a 1 cm cuvette. A solution of the dye is prepared at a concentration sufficient to give an absorbance of 0.9-1.1 at the dye's λmax when buffered at pH 10.0. The absorbance is measured after storage at 25° C. Percent disappearance is calculated as the difference between the starting absorbance (A0) and the absorbance (At) at a specific storage period divided by the starting absorbance minus the baseline absorbance (Ab), by the following equation: […]

[3] = Color (λmax) by UV/visible spectrophotometer

% Disappearance (In-use) [1]	% Disappearance (Storage) [2]	Color (λmax; nm) [3]	Structure (SMILES)
0.8%	4.79%	580 nm	C=CCN1CCN(CC=C)c2cc(/N=N/c3n(CCCCN)cc[n+]3CCCCN)ccc21 [Compound 7]
1.28%	1.27%	553 nm	Cn1cc[n+](C)c1/N=N/c1cc2c3c(c1)OCCN3CCO2 [Compound 8, (E)-1,3-dimethyl-2-((2,3,4,5-tetrahydro-1,6-dioxa-3a-azaphenalen-8-yl)diazenyl)-1H-imidazol-3-ium methyl sulfate]
1.85%	3.37%	587 nm	CCN1CCN(CC)c2cc(/N=N/c3n(CCCCN)cc[n+]3CCCCN)ccc21 [Compound 9]

Continued, compound first:

Structure (SMILES)	% Disappearance (In-use) [1]	% Disappearance (Storage) [2]	Color (λmax; nm) [3]
CCN1CCN(CC)c2cc(/N=N/c3n(CCCN)cc[n+]3CCCN)ccc21.Cl.Cl.[Br-] [Compound 1, (E)-1,3-bis(3-ammoniopropyl)-2-((1,4-diethyl-1,2,3,4-tetrahydroquinoxalin-6-yl)diazenyl)-1H-imidazol-3-ium bromide dichloride]	2.0%	2.05%	587 nm
CCN1CCN(CC)c2cc(/N=N/c3n(CCC[N+](C)(C)C)cc[n+]3CCC[N+](C)(C)C)ccc21 [Compound 2, (E)-2-((1,4-diethyl-1,2,3,4-tetrahydroquinoxalin-6-yl)diazenyl)-1,3-bis(3-(trimethyl-ammonio)propyl)-1H-imidazol-3-ium tribromide]	0%	0.71%	580 nm
CN1CCNc2cc(/N=N/c3n(CCCN)cc[n+]3CCCN)ccc21.Cl.Cl.[Br-] [Compound 3, (E)-1,3-bis(3-ammoniopropyl)-2-((1-methyl-1,2,3,4-tetrahydroquinoxalin-6-yl)diazenyl)-1H-imidazol-3-ium bromide dichloride]	1.91%	4.55%	580 nm
CCCCCN1CCN(CCCCC)c2cc(/N=N/c3n(CCCCN)cc[n+]3CCCCN)ccc21.Cl.Cl.[Br-] [Compound 4, (E)-1,3-bis(4-ammoniobutyl)-2-((1,4-dipentyl-1,2,3,4-tetrahydroquinoxalin-6-yl)diazenyl)-1H-imidazol-3-ium bromide dichloride]	1.85%	3.86%	599 nm
CCCCCN1CCNc2cc(/N=N/c3n(CCCN)cc[n+]3CCCN)ccc21.Cl.Cl.[Br-] [Compound 5, (E)-1,3-bis(3-ammoniopropyl)-2-((1-pentyl-1,2,3,4-tetrahydroquinoxalin-6-yl)diazenyl)-1H-imidazol-3-ium bromide dichloride]	2.9%	3.14%	582 nm
CCN1CCN(CC)c2cc(/N=N/c3n(CCC[N+](C)(C)C)cc[n+]3CCC[N+](C)(C)C)ccc21 [Compound 6]	10.86%	3.47%	592 nm
